Assay results reported in paper PMC9030166, “Natural Phaeosphaeride A Derivatives Overcome Drug Resistance of Tumor Cells and Modulate Signaling Pathways” (Pharmaceuticals, 2022).

Tests used:
p70S6K (pThr389/412) = test: MILLIPLEX MAP 9-Plex, p70S6K active form in A431 lysates; assay type: cell-based, human; conditions: A431 cell lysates, 10 μM, 1 h, M ± mx; control 39.9 ± 7.2
Text: (§1) We used the MILLIPLEX MAP Multi-Pathway Magnetic Bead 9-Plex-Cell Signaling Multiplex Assay, which allows the simultaneous detection of nine phosphorylated proteins that are markers of the main intracellular signaling pathways (phosphorylation site is indicated in parentheses), a universal transcription factor that controls the expression of immune response genes; apoptosis and cell cycle NFκB (pS536); cAMP-dependent transcription factor (CREB (pS133); mitogen-activated kinase p38 (pT180/pY182); stress-activated protein kinase JNK (pT183/pY185); ribosomal […]; transcription factors STAT3 (pS727) and STAT5A/B (pY694/699); protein kinase B (Akt) (pS473); and kinase regulated by extracellular signals ERK1/2 (pT185/pY187).
(§2) The effect of various concentrations of PPA derivatives on the cell culture was studied using xCelligence RTCA equipment (AceaBioscience, San Diego, CA, USA). The concentration closest to the IC50 (10 μM) was chosen as the experimental concentration. The selected concentration of phaeosphaeride A derivatives allows for the assessment of the early effect of compounds on cells and compares their effectiveness. In this experiment, the signaling pathways Akt (pSer473), p70S6K (pThr412), NFkB (p65-pSer536), and CREB (pSer133) were not activated (Table 8). The stress-activated signaling pathways ERK/MAP kinase 1/2 (pThr185/pTyr187), JNK (pThr183/pTyr185), and p38 (pThr180/pTyr182) were activated for these compounds.
(§3) We used a MILLIPLEX MAP Multi-Pathway Magnetic Bead 9-Plex-Cell Signaling Multiplex Assay kit (Merck/Millipore), according to the manufacturer’s protocol. A431 cells were cultured in DMEM with 10% FBS in 24-well plates. Compounds were added to the subconfluent cells at a concentration of 10 μM in DMEM medium for 1 h. Each compound was added in 5 experimental repeats. Cell lysates were prepared with lysis buffer (Millipore) with protease inhibitors (Complete, Roche); the protein concentration in the lysates was determined by the Lowry method. In samples equalized in protein concentration, the active forms of kinase cascades were determined using a Bio-Plex 200 fluorescent analyzer (Bio-Rad).

K562 = test: MTT cytotoxicity, K562 chronic myeloid leukemia cells; assay type: cell-based; conditions: Homo sapiens, K562, suspension culture, 48 h (Table 2)
Text: Cell cultures used in the work: adhesive cultures HBL-100 cells (cells of a normal mammary gland epithelium, immortalized by the SV40 virus and acquired tumorigenicity); MCF-7 breast cancer cells; PC-3 prostate adenocarcinoma cells; HCT-116 colorectal cancer cells; non-small cell lung cancer cells A549; human embryonic kidney cells HEK293; suspension cultures (NCI-H929 and RPMI8226 multiple myeloma cells), K562 chronic myeloid leukemia cells; THP-1 acute monocytic leukemia cells; and Jurkat acute T-cell leukemia cells. We also used several primary cultures of soft tissue sarcomas at 3–4passeges, kindly provided by T.I. Fetisov (The Ethics Committee of N.N. Blokhin NMRCO, protocol code 18-28-09095 and date of approval 28 September 2018).
(§4) Modifications of cell lines: K562/i-S9 is a clone obtained after transfection of K562 cells with the ABCB1 (MDR1) gene-encoding P-glycoprotein [36]. Cells HBL-100/Dox and K562/i-S9_Dox are cells obtained by long-term selection with increasing concentrations of doxorubicin (Sigma-Aldrich, St. Louis, MO, USA) from HBL-100 and K562/i-S9 cells, respectively. MCF-7, A594 cells, and primary cultures of soft tissue sarcomas were cultured in DMEM medium (PanEko, Russia), PC-3 and HCT-116 cells and all suspension cultures in RPMI1640 medium (PanEko, Russia) supplemented with 10% fetal bovine serum (GE Healthcare LifeSciences, USA), and gentamicin at a concentration of 40 μg/mL at 37 °C and 5% CO2.
(§5) Cells MCF-7, PC-3, A549, and HCT-116, and primary cultures of STSwere seeded in 96-well plates, 6 × 10^3 cells per well in 90 μL of culture medium. Suspension cultures were seeded at a concentration of 25 × 10^3 cells per well in 135 μL of medium. The test substances were dissolved in DMSO (Applichem, Council Bluffs, IA, USA) until a concentration of 1 × 10^−^2 M was obtained; for the subsequent dilution of the substances, a serum-free culture medium was used. The next day, for adhesive cultures, and on the same day, for suspension cultures, substances were added to the plates in a volume of 10 μL (adhesive cultures) and 15 μL (suspension cultures) per well at various concentrations; each concentration was added in 3–4 repetitions. The cells were cultured in the presence of substances for 48 h. Then, MTT reagent (PanEko, Moscow, Russia) was added to the wells at a concentration of 5 mg/mL in a volume of 20 μL per well. After 1.5–2 h, the medium with the reagent was removed, and the precipitate of the crystals of formazan was dissolved in 60 μL of DMSO. The optical density was determined using a Multiskan FC spectrophotometer (Thermo Scientific, Waltham, MA, USA) at a wavelength of 540 nm.
Based on the results of the experiments, a schedule was plotted of the dependence of the percentage of surviving cells (from control) on the concentration of the compound, and the sought concentration IC50 was calculated. The experiments were carried out in 3–4 times.

STAT3 (pSer727) = test: MILLIPLEX MAP 9-Plex, STAT3 active form in A431 lysates; assay type: cell-based, human; conditions: 10 μM; for STAT3 (pSer727) fluorescence intensity: A431 cell lysates, 1 h, M ± mx, control 70.7 ± 18.3
Text: as §1, §2, §3

HBL-100/Dox = test: MTT cytotoxicity, resistant HBL-100/Dox cells; assay type: cell-based, human; conditions: for IC50: Homo sapiens, HBL-100, resistant version, MTT, 48 h; for resistance of HBL-100/Dox cells relative to HBL-100: ratio of IC50 values, Table 5
Text: At the next stage, the cytotoxic activity of compounds 1, 2, and 9 (Scheme 2) was investigated on several pairs of cell lines that differ in the expression of P-gp and the method by which they were obtained. […] K562/i-S9_Dox cells were obtained from K562/i-S9 by selection with low concentrations of doxorubicin to increase P-gp expression.
as §4, §5
The experiments were carried out in 3–4 times.

Row | SMILES | p70S6K (pThr389/412) fluorescence intensity (p70S6K (pThr389/412)) | IC50 (K562) [µM] | STAT3 (pSer727) fluorescence intensity (STAT3 (pSer727)) | IC50 (HBL-100/Dox) [µM] | resistance of HBL-100/Dox cells relative to HBL-100 (HBL-100/Dox) | activation of transcription factor STAT3 (pSer727), in words (STAT3 (pSer727); A431 cells)
1 | C=C1C2=C(C(=O)N1OC)[C@@H](N1CCCC1)[C@@](C)(O)[C@H](CCCCC)O2 [Compound 1] | 51.7 ± 4.8 rel. units | 3.8 ± 0.6 | 163.0 ± 20.7 *↑ rel. units | 7.6 ± 0.6 | no difference in resistance | –
2 | C=C1C2=C(C(=O)N1OC)[C@@H](N(C)C)[C@@](C)(O)[C@H](CCCCC)O2 [Compound 2, (2S,3R,4R)-4-(dimethylamino)-3-hydroxy-6-methoxy-3-methyl-7-methylene-2-pentyl-3,4,6,7-tetrahydropyrano[2,3-c]pyrrol-5(2H)-one] | 56.9 ± 9.9 rel. units | 2.4 ± 0.7 | 272.3 ± 50.5 *↑ rel. units | 6.6 ± 1.2 | no difference in resistance | slightly activated
3 | C=C1C2=C(C(=O)N1OC)[C@@H](N(CCCC)CCCC)[C@@](C)(O)[C@H](CCCCC)O2 [Compound 5, (2S,3R,4R)-4-(dibutylamino)-3-hydroxy-6-methoxy-3-methyl-7-methylene-2-pentyl-3,4,6,7-tetrahydropyrano[2,3-c]pyrrol-5(2H)-one] | 70.6 ± 9.2 *↑ rel. units | 6.5 ± 0.5 | 123.4 ± 8.3 *↑ rel. units | – | – | –
4 | C=C1C2=C(C(=O)N1OC)[C@@H](N(CC)CCO)[C@@](C)(O)[C@H](CCCCC)O2 [Compound 9, (2S,3R,4R)-4-[ethyl(2-hydroxyethyl)amino]-3-hydroxy-6-methoxy-3-methyl-7-methylene-2-pentyl-3,4,6,7-tetrahydropyrano[2,3-c]pyrrol-5(2H)-one] | 38.8 ± 7.4 rel. units | 3.7 ± 0.5 | 151.5 ± 28.7 rel. units | 8.4 ± 0.4 | tendency towards a slightly higher resistance | –
5 | CCCCC[C@@H]1OC2=C(C(=O)N(OC)/C2=C\n2cnnc2)C(n2cnnc2)[C@@]1(C)O (stereo partly shown) [Compound 10] | 53.4 ± 4.0 rel. units | 45 ± 5.4 | 178.9 ± 13.4 *↑ rel. units | – | – | –
